Values quoted from earlier work, collected in patent publication US20090023692A1, “COMPOSITIONS FOR INHIBITING AND PREVENTING VASCULAR OCCLUSION CONTAINING NUTRITIONAL SUPPLEMENTS” (NeursoSci, Inc., priority 2005, published 2009).

Details: daily administration of low doses (approximately 80-100 mg), patients at risk for cardiovascular events

CC(=O)Oc1ccccc1C(=O)O [aspirin, acetylsalicylic acid]
reduction of second heart attacks, strokes, and cardiovascular deaths: at least 25%
